Results from patent US4788304A, “Phospholipase A2 inhibitors” (American Home Products Corporation, priority 1987, dated 1988).

Legend:
[1] = tested on: synthesis of the arachidonic acid cyclooxygenase oxidation product TxB2; test: Inhibition of TxB2 synthesis (cyclooxygenase product) by rat polymorphonuclear leukocytes; type: cell-based, rat (female Wistar); details: Leukocyte, A23187-stimulated rat PMN
[2] = tested on: AA-induced mouse ear edema; test: Arachidonic acid (AA)-induced murine ear edema test; type: in vivo, mouse (Swiss Webster); details: 1 mg/ear, 30 min prior to AA, measured 1 h after AA
[3] = tested on: TPA-induced mouse ear edema; test: TPA-induced murine ear edema test; type: in vivo, mouse (Swiss Webster); details: 1 mg/ear, 30 min after TPA, measured 4 h after TPA
[4] = tested on: rat carrageenan paw edema; test: Rat carrageenan paw edema; type: in vivo, rat (Sprague-Dawley); details: at 50 mg/kg (peroral), 1 h prior to carrageenan; 3 h
Experimental: The compounds in the scope of the invention are further tested in the rat carrageenan paw edema to determine their ability to inhibit the acute inflammatory response.
[…] male Sprague-Dawley rats, in groups of 6 animals are injected subcutaneously in the right paw with 0.1 ml of 1% carrageenan at zero time. Mercury plethysmographic readings (ml) of the paw are made at zero time and 3 hours later. Test compounds are suspended or dissolved in 0.5% methylcellulose and given perorally 1 hour prior to carrageenan administration.
The increase in paw volume (edema in ml.) produced by the carrageenan is measured. Paw edema is calculated (3 hour volume minus zero time volume), and percent inhibition of edema is determined. Unpaired Student's t-test is used to determine statistical significance.

[5] = tested on: bronchospasm induced in guinea pigs by endogenous mediators of the bronchoconstriction; test: Ovalbumin-induced bronchospasm in guinea pigs; type: in vivo, guinea pig (Hartley); details: Cavia porcellus; intraduodenally administered, 10 minutes before intravenously administered ovalbumin challenge
Experimental: The assay of this Example measures the in vivo ability of the compounds in the scope of the invention to inhibit the bronchospasm induced in guinea pigs by endogenous mediators of the bronchoconstriction.
Male Hartley strain guinea pigs weighing 250-350 g are sensitized to chicken ovalbumin (OA) (10 mg i.p.) on days 1 and 3 and used starting on day 26. The animals are anesthetized with pentobarbital sodium (50 mg/kg, i.p.), bilateral vagotomy is performed, and the jugular vein is cannulated for injection of drugs and the carotid artery for monitoring blood pressure. The trachea is cannulated for artificial ventilation by miniature Starling pump and for indirect measurement of respiratory volume changes as described, infra. Succinylcholine (2 mg/kg, i.v.) is administered to arrest spontaneous respiration. […]
Respiratory volume changes are determined by a calibrated piston whose travel is recorded, via a linear transducer, on a Beckman Dynograph recorder. Maximal bronchoconstrictor volume is determined by clamping off the trachea at the end of the experiment. Overflow volumes at minutes 1, 3 and 5 are obtained from the recorded charts.
Area under the volume overflow curve (AUC) is estimated, using the overflow values at 1, 3 and 5 minutes, and expressed as a percentage of the maximal overflow AUC (equation 1): [formula] […]

COC(=O)C1(C(=O)CCCCOc2ccc(Cl)cc2)CO1 (centres unmarked) [Example 6A, 2-[5-(4-Chlorophenoxy)-1-oxopentyl]-2-oxiranecarboxylic acid methyl ester]
inhibition at 10 µM [1]: 30%
Mouse Ear Edema Assay, % Change from Control, TOPICAL, AA [2]: -38%
Mouse Ear Edema Assay, % Change from Control, TOPICAL, TPA [3]: -42%
% Inhibition of paw edema [4]: 50%
ED50 [5]: 13.5 mg/kg
